Experimental data as given in PMC11915811, “Conformational activation and disulfide exchange in HIV-1 Env induce cell-free lytic/fusogenic transformation and enhance infection” (Journal of Virology, 2025).
Entries after “also recorded” stand apart in the source; their conditions may differ. Like-named read-outs stand apart in the source and are kept apart here.

Columns and labels:
gp120 = conditions: read-out: Kd, gp120 binding affinity, cited from earlier work
JRFL pseudovirus [1] = assay: Cell-free lysis of JRFL pseudovirus, p24 release detected by ELISA; conditions: 2 h at 37°C; for Lysis of JRFL pseudovirus in conjunction with Trx1 (in words): 1,000 nM compound + serial dilutions of Trx1; for p24 leakage from JRFL pseudovirus with thiol compound in place of Trx1: 1,000 nM KR13b + 1,000 nM free cysteine or glutathione, mean of three independent experiments
JRFL pseudovirus [2] = type: cell-based, HIV-1; conditions: 1,000 nM Trx1; HOS CD4+ CCR5+ cells; normalized to pseudovirus + PBS
BaL.01 pseudovirus = type: cell-based, HIV-1; conditions: 1,000 nM Trx1; HOS CD4+ CCR5+ cells; normalized to pseudovirus + PBS
HXB2 pseudovirus = type: cell-based, HIV-1; conditions: 1,000 nM Trx1; HOS CD4+ CCR5+ cells; normalized to pseudovirus + PBS
VSV pseudovirus = type: cell-based, vesicular stomatitis virus

## COc1ccnc2[nH]cc(C(=O)C(=O)N3CCN(C(=O)c4ccccc4)C[C@H]3C)c12 [BMS-806]
gp120; SPA (scintillation proximity assay)
  Kd: 21.1 ± 1.9 nM
JRFL pseudovirus [1]
  Lysis of JRFL pseudovirus in conjunction with Trx1 (in words): did not

## CNCc1ccc2c(c1)C[C@H](CN=C(N)N)[C@H]2NC(=O)C(=O)Nc1ccc(Cl)c(F)c1.O=C(O)C(F)(F)F.O=C(O)C(F)(F)F [BNM-III-170]
gp120; ITC
  Kd: 47 nM
JRFL pseudovirus [1]
  Lysis of JRFL pseudovirus in conjunction with Trx1 (in words): did cause lysis

## N[C@@H](CS)C(=O)O [cysteine]
JRFL pseudovirus [1]
  p24 leakage from JRFL pseudovirus with thiol compound in place of Trx1: Neither thiol compound caused leakage of p24 above background

## N[C@@H](CCC(=O)N[C@@H](CS)C(=O)NCC(=O)O)C(=O)O [glutathione]
JRFL pseudovirus [1]
  p24 leakage from JRFL pseudovirus with thiol compound in place of Trx1: Neither thiol compound caused leakage of p24 above background

B1: Trx1: recombinant human thioredoxin-1, purchased from Cayman Chemical (protein)
chain: MVKQIESKTAFQEALDAAGDKLVVVDFSATWCGPCKMIKPFFHSLSEKYSNVIFLEVDVDDCQDVASECEVKCMPTFQFFKKGQKVGEFSGANKEKLEATINELV
JRFL pseudovirus [2]
  Enhancement of pseudovirus infectivity (RLU) by exogenous Trx1: at least doubling its RLU values
BaL.01 pseudovirus
  Enhancement of pseudovirus infectivity (RLU) by exogenous Trx1: at least doubling its RLU values
HXB2 pseudovirus
  Enhancement of pseudovirus infectivity (RLU) by exogenous Trx1: at least doubling its RLU values
VSV pseudovirus
  Enhancement of VSV infection by Trx1: 10–40%
JRFL pseudovirus [1]; serial dilutions of the single component, no partner
  p24 release / lysis of JRFL pseudovirus by the component alone (control): no significant p24 release; also recorded: negligible lysis
JRFL pseudovirus [1]; virus preincubated with 1,000 nM of labelled component for 0–30 min, then 1,000 nM of the other (KR13b or Trx1) added, versus no preincubation
  Effect of preincubating virus with one component on lysis (order of addition): significant decrease in lytic effect at 10 min
